Measurements reported in the supplement of paper PMC11061612.

Assays:
Assay in all cases: combination Emax (second highest fraction inhibited in the dose matrix, 72 h); higher = more inhibition; extreme values may be limits of the assay
[1] = tested on: COR-L23 (Non-Small Cell Lung Carcinoma)
Method in brief: (§1)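 Cell lines in DMEM/F12 or RPMI with 10% FBS were plated in 1536-well plates, held 24 hours at 37°C, 5% CO2, then given two-drug dose matrices for 72 hours (DMSO typically 0.2%). Viability was read by CellTiter-Glo 2.0 luminescence and scaled as inhibition from 0 (vehicle wells) to 1 (blank wells). Combination Emax is the second-highest inhibition in the matrix; Bliss excess is observed combination effect minus expected EA + EB − EA·EB, EA and EB being single-agent effects.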

[2] = tested on: CTV-1 (T-Lymphoblastic Leukemia)
Method in brief: as §1

[3] = tested on: DMS-273 (Small Cell Lung Carcinoma)
Method in brief: as §1

[4] = tested on: DOV13 (Ovarian Carcinoma)
Method in brief: as §1

[5] = tested on: ES7 (Ewing's Sarcoma)
Method in brief: as §1

[6] = tested on: G-292-Clone-A141B1 (Osteosarcoma)
Method in brief: as §1

[7] = tested on: KM-H2 (Hodgkin's Lymphoma)
Method in brief: as §1

[8] = tested on: LS-513 (Colorectal Carcinoma)
Method in brief: as §1

[9] = tested on: MDA-MB-157 (Breast Carcinoma)
Method in brief: as §1

[10] = tested on: MDA-MB-231 (Breast Carcinoma)
Method in brief: as §1

[11] = tested on: MFH-ino (Other Solid Carcinomas)
Method in brief: as §1

[12] = tested on: NALM-6 (B-Lymphoblastic Leukemia)
Method in brief: as §1

[13] = tested on: NCI-H1781 (Lung Adenocarcinoma)
Method in brief: as §1

[14] = tested on: NCI-H1793 (Lung Adenocarcinoma)
Method in brief: as §1

[15] = tested on: NCI-H2369 (Mesothelioma)
Method in brief: as §1

[16] = tested on: NCI-H2595 (Mesothelioma)
Method in brief: as §1

[17] = tested on: OCI-AML2 (Acute Myeloid Leukemia)
Method in brief: as §1

[18] = tested on: SW1990 (Pancreatic Carcinoma)
Method in brief: as §1

[19] = tested on: SW780 (Bladder Carcinoma)
Method in brief: as §1

[20] = tested on: TE-5 (Esophageal Squamous Cell Carcinoma)
Method in brief: as §1

SMILES	combination Emax [1]	combination Emax [2]	combination Emax [3]	combination Emax [4]	combination Emax [5]	combination Emax [6]	combination Emax [7]	combination Emax [8]	combination Emax [9]	combination Emax [10]	combination Emax [11]	combination Emax [12]	combination Emax [13]	combination Emax [14]	combination Emax [15]	combination Emax [16]	combination Emax [17]	combination Emax [18]	combination Emax [19]	combination Emax [20]
NC1(C(=O)N[C@@H](CCO)c2ccc(Cl)cc2)CCN(c2ncnc3[nH]ccc23)CC1 [Capivasertib] + CCN(CCO)CCCOc1ccc2c(Nc3cc(CC(=O)Nc4cccc(F)c4)[nH]n3)ncnc2c1 [AZD2811] (first compound max 10 µM, 7x7, partner max 1 µM)	0.474	0.636	0.906	0.544	0.86	0.245	0.362	0.532	0.276	0.349	0.318	0.907	0.799	0.289	0.231	0.261	0.904	0.136	0.28	0.339
CC(=O)Nc1cccc(-n2c(=O)n(C3CC3)c(=O)c3c(Nc4ccc(I)cc4F)n(C)c(=O)c(C)c32)c1 [Trametinib] + Cc1nc(-c2cn3c(n2)-c2ccc(-c4cnn(C(C)(C)C(N)=O)c4)cc2OCC3)n(C(C)C)n1 [Taselisib] (first compound max 1 µM, 7x7, partner max 10 µM)	0.919	0.96	0.591	0.76	0.673	0.921	0.227	1	0.336	0.868	0.583	0.689	0.88	0.778	0.294	0.404	1	0.971	0.541	0.767
Cc1cc2ncnn2cc1Nc1ncc2c(n1)n(C1CCOCC1)c(=O)n2C [AZD7648] + CN(C)CCCOc1ccc(-c2ccc3ncc4c(c3c2)n(C2CCOCC2)c(=O)n4C)cn1 [AZD0156] (first compound max 10 µM, 7x7, partner max 1 µM)	0.0702	0.262	0.411	0.325	0.433	0.341	0.158	0.247	0.209	0.42	0.341	0.323	0.352	0.333	0.198	0.208	0.367	0.212	0.18	0.41
C=CCn1c(=O)c2cnc(Nc3ccc(N4CCN(C)CC4)cc3)nc2n1-c1cccc(C(C)(C)O)n1 [AZD1775] + C1CN(CCC1(C(=O)N[C@@H](CCO)C2=CC=C(C=C2)Cl)N)C3=NC=NC4=C3C=CN4 [Capivasertib] (first compound max 3 µM, partner max 3 µM)	0.895	0.983	0.896	0.775	0.808	0.492	0.949	0.81	0.837	0.624	0.35	0.985	0.858	0.428	0.3	0.281	0.988	0.584	0.399	0.66
COc1nnc2ccc(N3CCC(c4ccc(OCCN5CCN(C)C(=O)[C@H]5C)cc4)CC3)nn12 [AZD5153] + Cn1cnc2c(F)c(Nc3ccc(Br)cc3Cl)c(C(=O)NOCCO)cc21 [Selumetinib] (first compound max 1 µM, 7x7, partner max 10 µM)	0.422	0.99	0.71	0.482	0.549	0.317	0.299	0.951	0.546	0.73	0.636	0.886	0.327	0.373	0.368	0.364	1	0.265	0.537	0.429
CC1(C)CCC(CN2CCN(c3ccc(C(=O)NS(=O)(=O)c4ccc(NCC5CCOCC5)c([N+](=O)[O-])c4)c(Oc4cnc5[nH]ccc5c4)c3)CC2)=C(c2ccc(Cl)cc2)C1 [Venetoclax] + Cn1cnc2c(F)c(Nc3ccc(Br)cc3Cl)c(C(=O)NOCCO)cc21 [Selumetinib] (first compound max 1 µM, 7x7, partner max 3 µM)	0.2	0.293	0.214	0.157	0.7	0.146	0.097	0.717	0.546	0.38	0.201	0.908	0.166	0.199	0.119	0.129	1	0.49	0.227	0.107
COc1nnc2ccc(N3CCC(c4ccc(OCCN5CCN(C)C(=O)[C@H]5C)cc4)CC3)nn12 [AZD5153] + Cc1c2c(nn1C)CSCc1cc(n(C)n1)CSc1cc(c3ccccc3c1)OCCCc1c(C(=O)O)n(C)c3c-2c(Cl)ccc13 [AZD5991] (first compound max 1 µM, 7x7, partner max 1 µM)	0.312	0.939	0.994	0.487	0.928	0.387	0.451	0.644	0.993	0.642	0.489	0.904	0.435	0.288	0.337	0.602	1	0.109	0.365	0.407
